Laboratory results published in patent US8101213B2, “Xanthohumol compositions and methods of using same” (The University of Georgia Research Foundation, Inc, priority 2007, dated 2012).
Like-named read-outs stand apart in the source and are kept apart here.

Columns and labels:
[1] = tested on: mature adipocytes (3T3-L1); assay: Apoptosis assay (ApoStrand ELISA, single stranded DNA) in mature adipocytes; type: cell-based, mouse; conditions: for effect on apoptosis of mature adipocytes (ssDNA): individual compound, XN e.g. 50 μM at 48 hrs; for increased apoptosis, alone: XN or GS alone; for effect on apoptosis: compound alone at 25 and 50 μM; for % Increase in apoptosis mean ± s.e.m.: mature adipocytes, concentration (μM) is the number in the treatment label
Description: Apoptosis assays. For the assessment of apoptosis, the ApoStrand ELISA Apoptosis Detection Kit (Biomol, Plymouth Meeting, Pa.) was used. This kit detects single stranded DNA, which occurs in apoptotic cells but not in necrotic cells or in cells with DNA breaks in the absence of apoptosis. Adipocytes were incubated with DMSO or the test compounds for the indicated times and at the indicated concentrations. Thereafter, treatment media was removed and the cells were fixed for 30 min and assayed according to the manufacturer's instructions.
The enhanced reduction in cell viability by XN plus HK was evaluated to determine if the reduction in cell viability was attributable to apoptosis.
The effects of XN and G on mature adipocytes apoptosis were investigated by measuring the changes of the levels of single strained DNA (ssDNA) in the cells.
(§1) The enhanced reduction in cell viability by XN plus GS was evaluated to determine if the reduction in cell viability was attributable to apoptosis.

[2] = tested on: mature adipocytes (3T3-L1); assay: Cell viability assay (MTS) in mature adipocytes; conditions: for effect on viability of mature adipocytes: individual compound, 24 and 48 h; for effect on cell viability: compound alone at 25 and 50 μM
Description: (§5) 3T3-L1 mouse fibroblast were obtained from American Type Culture Collection (Manassas, Va.) and were cultured in Dulbecco's modified Eagle's medium (DMEM) (GIBCO, Grand Island, N.Y.) containing 10% bovine calf serum (BCS) until confluent. Two days after confluency, the cells were stimulated to differentiate with an induction medium (hereinafter “MDI”), which comprises DMEM containing 10% FBS, 167 nM insulin (Sigma), 0.5 μg of isobutylmethylxanthine (IBMX) (Sigma), and 1 μm of dexamethasone (Sigma) for two (2) days. Cells were then maintained on 10% FBS/DMEM with 167 nM insulin for another 2 days, followed by culturing with FBS/DMEM for an additional four days, at which time more than 90% of cells were mature adipocytes with accumulated fat droplets. All media contained 100 U/ml of penicillin, 100 μg/ml of streptomycin, and 292 μg/ml of glutamine. Cells were maintained at 37° C. in a 5% CO2 humidified environment.
(§6) Cell viability assay. Adipocytes were incubated with dimethyl sulfoxide (DMSO) (0.02%) or test compounds. Prior to measuring viability, treatment media were removed and replaced with 100 μl fresh 10% FBS/DMEM medium and 20 μl MTS solution (Promega, Madison, Wis.). Cells were then returned to the incubator for an additional 2 h before 25 μl of 10% sodium dodecyl sulfate (SDS) was added to stop the reaction. The absorbance was measured at 490 nm in a plate reader (μQuant Bio-Tek Instruments, Inc. Winooski, Vt.) to determine the formazan concentration, which is proportional to the number of live cells.
(§7) Adipocytes were treated with XN (25, 50 μM) and HK (25, 50, 75 μM) as individual compounds or in combination for 12, 24, and 48 h. After treatment, cell viability was determined by the MTS assay, as described in Example 1.
(§8) Adipocytes were treated with XN (25, 50 μM) and G (50, 100 μM) as individual compounds or in combination for 24 and 48 h. After treatment, cell viability was determined by the MTS assay, as described in Example 1.
(§9) Adipocytes were treated with XN (25, 50, 75 μM) and GS (25, 50, 75 μM) as individual compounds or in combination for 24 and 48 h. After treatment, cell viability was determined by the MTS assay, as described in Example 1.

caspase-3/7 = assay: Caspase-3 and 7 activity assay (Caspase-Glo 3/7) in mature adipocytes; type: cell-based, mouse; conditions: for caspase-3/7 activity: individual compound, XN 25, 50 μM, HK 25, 50, 75 μM, 12 h
Description: Caspase-3 and 7 activity assay. Adipocytes were incubated with DMSO or the test compounds and the indicated times and concentrations. Thereafter, 100 μl of caspase-Glo 3/7 reagent (Promega, Madison, Wis.) was added to each sample and the cells were incubated for 1 h and assayed according to the manufacturer's instructions.
Effects of XN and HK on caspase-3/−7 activation and PARP cleavage. To confirm apoptosis in response to combined treatment with XN and HK, the activity of caspase-3/7 was evaluated.
The caspases 3/7 activity was measured using a commercially available Caspase Glo 3/7 assay kit (Promega, Madison, Wis.), as described in Example 1.

mature adipocytes [3] = assay: Lipolysis in mature adipocytes; type: cell-based, mouse; conditions: for lipolysis: XN or GS alone, 12 h incubation
Description: Effects of XN and HK on lipolysis in mature adipocytes. Mature adipocytes were incubated with either control or test compounds for indicated times.

mature adipocytes [4] = assay: Hoechst staining of mature adipocytes; type: cell-based, mouse; conditions: XN or GS alone
Description: as §1

Bcl-2 protein = Bcl-2 protein expression (Western blot); type: cell-based, mouse; conditions: compound individually
Description: (§2) Western blot analysis. Following the indicated treatment, whole cell extracts were prepared by washing the cells with phosphate buffered saline (PBS) and suspending the cells in a lysis buffer (20 mM Tris, pH 7.5, 150 mM sodium chloride, 1 mM EDTA, 1 mM EGTA, 1% Triton X-100, 2.5 mM sodium pyrophosphate, 1 mM β-glycerophosphate, 1 mM sodium vanadate (Na3VO4), 1 μg/ml aprotinin, 1 μg/ml leupeptin, and 100 μg/ml phenylmethylsulfonyl fluoride). After 30 min of rocking at 4° C., the mixtures were centrifuged (10,000×g) for 10 min, and the supernatants were collected as whole-cell extracts. […] The protein concentration was determined by the method of Bradford with bovine serum albumin as the standard. […] Samples were heated to 70° C. for 10 min, separated by 12% acrylamide gels, and analyzed by immunoblotting. […]
(§3) Quantitative analysis of Western blot data. […] For statistical analysis, all data were expressed as integrated density values (IDV). For PARP, Bcl-2, and cytochrome c, IDVs were calculated as the density values of the specific protein bands/β-actin density values and expressed as percentage of the control.
To further investigate whether XN and GS affects the intrinsic apoptosis induction pathway, the expression of the anti-apoptotic Bcl-2 protein was evaluated by western blotting.

mature adipocytes [5] = assay: Lipid content of mature adipocytes after 7-day treatment; type: cell-based, mouse; conditions: individual compound, XN 6 μM and 12 μM, GS 12 μM and 25 μM, seven days
3T3-L1 pre-adipocytes = assay: Adipogenesis: lipid content (AdipoRed) during maturation of pre-adipocytes; type: cell-based, mouse; conditions: compound alone, days 0-6 of differentiation
Description: Quantification of lipid content and oil red O staining. Lipid content was measured using a commercially available kit (AdipoRed Assay Reagent; Cambrex Bio Science, Walkersville, Inc.). Briefly, test compositions and a 0.01% DMSO control were added with the induction medium for days 0-6 of adipogenesis. Medium was changed every 2 days. On day 6, intracellular lipid content was measured by AdipoRed Assay. Cells were washed with PBS (pH 7.4) and 200 μl of PBS was added to the wells. About 5 μl of AdipoRed reagent was added to each well. After 10 min, the plates were placed in the fluorometer and fluorescence was measured with excitation wavelength of 485 nm and emission wavelength of 572 nm. To visualize lipid content, treated cells were stained with oil red O and hematoxylin as described by Suryawan and Hu. After mounting with glycerol gelatin, three images for each dish were captured using ImagePro software (MediaCybernetics, Silver Spring, Md.).
Effects of XN and HK on adipogenesis of post-confluent pre-adipocytes during maturation. Post-confluent pre-adipocytes were induced to differentiate for 0-6 days in differentiation medium with or without XN or HK for indicated times. […]
To determine the synergistic effects of XN and GS on adipogenesis, the effect of XN and GS on inhibiting lipid accumulation in (FIG. 15A) and viability of (FIG. 15B) maturing 3T3-L1 adipocytes was determined.

cytochrome c = assay: Cytochrome c release from mitochondria (Western blot); type: cell-based, mouse; conditions: compound alone at 50 μM
Description: as §2, §3
(§4) Effects of XN and HK cytochrome c release from mitochondria and PARP cleavage in mature adipocytes. To further investigate whether XN and HK affects the intrinsic apoptosis induction pathway, the induction of cytochrome c release was evaluated by Western blotting.

[6] = tested on: Poly (ADP-ribose) polymerase (PARP); assay: PARP cleavage in mature adipocytes (Western blot); type: cell-based, mouse; conditions: compound alone
Description: as §2, §3, §4

[7] = tested on: mature adipocytes (3T3-L1); conditions: mouse, 48 h
Description: as §5, §6, §7, §8, §9

In the case of O=c1c(-c2ccc(O)cc2)coc2cc(O)cc(O)c12 [G, 4,5,7-trihydroxyisoflavone], the “effect on apoptosis of mature adipocytes (ssDNA)” value [1] is reported as “did not affect apoptosis” and the “effect on viability of mature adipocytes” value ([2]; XN 25, 50 μM, G 50, 100 μM) is reported as “did not affect the viability”.
In the case of C/C=C1\C(=O)C[C@H]2[C@@H]3CCC4=CC(=O)CC[C@]4(C)[C@H]3CC[C@]12C [GS, Guggulsterone], the “increased apoptosis, alone” value [1] is reported as “about 20%”, the “caspase 3/7 activity” value (caspase-3/7; GS alone at 75 μM) is reported as “increased caspase activity” and the lipolysis (mature adipocytes [3]) is reported as “increased lipolysis slightly”. The “Hoechst staining, individual treatments” value (mature adipocytes [4]) was “small increase in staining”, the Bcl-2 protein level (Bcl-2 protein) was “decreased Bcl-2” and the “lipid accumulation in mature adipocytes” value (mature adipocytes [5]) was “decreased lipid accumulation”. The “effect on viability of mature adipocytes” value ([2]; XN or GS 25, 50, 75 μM) was “decreased the viability of mature adipocytes in a dose-dependent and time-dependent manner”.
C=CCc1ccc(O)c(-c2ccc(O)c(CC=C)c2)c1 [HK, Honokiol] was tested, and the increased apoptosis ([1]; alone at 75 μM, 24 h, P<0.05) was 70.4±15.9%, the effect on apoptosis ([1]; 24 h) was “no effect” and the “% Increase in apoptosis mean ± s.e.m.” value ([1]; 24 h, listed as HK50) was 10.8 ± 5.9%. The “% Increase in apoptosis mean ± s.e.m.” value ([1]; 24 h, listed as HK75) was 70.4 ± 15.9%, the caspase-3/7 activity (caspase-3/7) was “increased caspase-3/7 activity in a dose-dependent manner” and the “lipid accumulation during maturation” value (3T3-L1 pre-adipocytes) was “increased lipid accumulation”. For the same molecule, the “effect on cytochrome c release” value (cytochrome c) was “neither 50 μM of XN nor 50 μM of HK had an effect”, the “effect on PARP cleavage” value [6] was “neither compound alone may affect” and the “% Decrease in viability mean ± s.e.m.” value [7] was −1.8 ± 1.5%. The cytotoxicity at 75 µM ([2]; Mus musculus, 3T3-L1, 48 h, read-out: decreased cell viability) was 9.1 ± 2.5% and the “effect on cell viability” value ([2]; 48 h) was “no effect”.
With COc1cc(O)c(CC=C(C)C)c(O)c1C(=O)/C=C/c1ccc(O)cc1 [XN, Xanthohumol] the “increased apoptosis, alone” value [1] was “about 20%”, the effect on apoptosis ([1]; 24 h) was “no effect” and the “effect on apoptosis of mature adipocytes (ssDNA)” value [1] was “increased apoptosis”. The “% Increase in apoptosis mean ± s.e.m.” value ([1]; 24 h) was 51.0 ± 16.5%, the caspase-3/7 activity (caspase-3/7) was “increased caspase-3/7 activity in a dose-dependent manner” and the “lipid accumulation during maturation” value (3T3-L1 pre-adipocytes) was “decreased lipid accumulation”. For the same molecule, the increase in lipolysis (mature adipocytes [3]; XN 50 μM alone) was 20%, the lipolysis (mature adipocytes [3]) was “increased lipolysis slightly” and the “effect on cytochrome c release” value (cytochrome c) was “neither 50 μM of XN nor 50 μM of HK had an effect”. For the same molecule, the “effect on PARP cleavage” value [6] was “neither compound alone may affect”, the “Hoechst staining, individual treatments” value (mature adipocytes [4]) was “small increase in staining” and the Bcl-2 protein level (Bcl-2 protein) was “decreased Bcl-2”. For the same molecule, the “lipid accumulation in mature adipocytes” value (mature adipocytes [5]) was “decreased lipid accumulation”, the “effect on cell viability” value ([2]; 48 h) was “no effect” and the “effect on viability of mature adipocytes” value ([2]; XN 25, 50 μM, G 50, 100 μM) was “decreased the viability of mature adipocytes in a dose-dependent and time-dependent manner”. For the same molecule, the “effect on viability of mature adipocytes” value ([2]; XN or GS 25, 50, 75 μM) was “decreased the viability of mature adipocytes in a dose-dependent and time-dependent manner” and the “% Decrease in viability mean ± s.e.m.” value ([2]; mature adipocytes, 48 h, concentration (μM) is the number in the treatment label) was −2.8 ± 1.5%.
